Assay results taken from US20110038948A1, “Methods of Reducing the Production of Reactive Oxygen Species and Methods of Screening or Identifying Compounds and Compositions that Reduce the Production of Reactive Oxygen Species” (UNIVERSITY OF TENNESSEE RESEARCH FOUNDATION, priority 2005, published 2011).

Tests used:
Type in all cases: cell-based, mouse
3T3-L1 adipocytes = assay: Mitochondrial membrane potential (JC-1); conditions: H2O2 100 nmol/L, 48 hours
Experimental: 3T3-L1 preadipocytes were incubated at a density of 8000 cells/cm^2 (10 cm^2 dish) and grown in Dulbecco's modified Eagle's medium (DMEM) containing 10% FBS and antibiotics (adipocyte medium) at 37° C. in 5% CO2 in air. Confluent preadipocytes were induced to differentiate with a standard differentiation medium consisting of DMEM-F10 (1:1, vol/vol) medium supplemented with 1% FBS, 1 μM dexamethasone, IBMX (0.5 mM) and antibiotics (1% Penicillin-Streptomycin). Preadipocytes were maintained in this differentiation medium for 3 days and subsequently cultured in adipocyte medium. Cultures were re-fed every 2-3 days to allow 90% of cells to reach full differentiation before conducting chemical treatment. Chemicals were freshly diluted in adipocyte medium before treatment. […] Cell viability was measured via trypan blue exclusion.
Mitochondrial membrane potential was analyzed fluorometrically with a lipophilic cationic dye JC-1 (5,5′,6,6′-tetrachloro-1,1′,3,3′-tetraethylbenzimidazol carbocyanine iodide) using a mitochondrial potential detection kit (Biocarta, San Diego, Calif.). Mitochondrial potential was determined as the ratio of red fluorescence (excitation 550 nm, emission 600 nm) and green fluorescence (excitation 485 nm, emission 535 nm) using a fluorescence microplate reader.

NADPH oxidase = NADPH oxidase expression in cultured adipocytes; conditions: glucose 30 mmol/L alone or plus compound, 48 hours
Experimental: (§1) 3T3-L1 preadipocytes were incubated at a density of 8000 cells/cm^2 (10 cm^2 dish) and grown in Dulbecco's modified Eagle's medium (DMEM) containing 10% FBS and antibiotics (adipocyte medium) at 37° C. in 5% CO2 in air. Confluent preadipocytes were induced to differentiate with a standard differentiation medium consisting of DMEM-F10 (1:1, vol/vol) medium supplemented with 1% FBS, 1 μM dexamethasone, IBMX (0.5 mM) and antibiotics (1% Penicillin-Streptomycin). Preadipocytes were maintained in this differentiation medium for 3 days and subsequently cultured in adipocyte medium. Cultures were re-fed every 2-3 days to allow 90% of cells to reach full differentiation before conducting chemical treatment. Chemicals were freshly diluted in adipocyte medium before treatment. Cells were washed with fresh adipocyte medium, re-fed with medium containing the different treatments, and incubated at 37° C. in 5% CO2 in air before analysis. Cell viability was measured via trypan blue exclusion. Adipocyte 18s, cyclin A, NADPH oxidase, and UCP2 were quantitatively measured using a Smart Cycler Real Time PCR System (Cepheid, Sunnyvale, Calif.) with a TaqMan 1000 Core Reagent Kit (Applied Biosystems, Branchburg, N.J.). The primers and probe sets were ordered from Applied Biosystems TaqMan® Assays-on-Demand™ Gene Expression primers and probe set collection according to manufacture's instruction. Pooled adipocyte total RNA was serial-diluted in the range of 1.5625-25 ng and used to establish a standard curve; total RNAs for unknown samples were also diluted in this range. Reactions of quantitative RT-PCR for standards and unknown samples were also performed according to the instructions of Smart Cycler System (Cepheid, Sunnyvale, Calif.) and TaqMan Real Time PCR Core Kit (Applied Biosystems, Branchburg, N.J.). The mRNA quantitation for each sample was further normalized using the corresponding 18s quantitation.

cyclin A = assay: Cyclin A expression in cultured adipocytes; conditions: compound plus glucose 30 mmol/L, 48 hours
Experimental: as §1, with “Cells were washed with fresh adipocyte medium, re-fed with medium containing the different treatments, and incubated at 37° C. in 5% CO2 in air before analysis.” left out, “The primers and probe sets were ordered from Applied Biosystems TaqMan® Assays-on-Demand™ Gene Expression primers and probe set collection according to manufacture's instruction. Pooled adipocyte total RNA was serial-diluted in the range of 1.5625-25 ng and used to establish a standard curve; total RNAs for unknown samples were also diluted in this range.” left out

Row | Structure (SMILES) | increase in mitochondrial potential (3T3-L1 adipocytes) | effect on NADPH oxidase expression (NADPH oxidase) | effect on glucose stimulated cyclin A expression (cyclin A)
1 | OO [H2O2, hydrogen peroxide] | 72% |  | 
2 | C=C1/C(=C\C=C2/CCC[C@]3(C)[C@@H]([C@H](C)CCCC(C)(C)O)CC[C@@H]23)C[C@@H](O)C[C@@H]1O [calcitriol, 1,25-(OH)2-D3] |  | stimulated | augmented
